# Publication PMC12491383, “Organ and tumour dosimetry of ^177Lu-rhPSMA-10.1, a novel PSMA-targeted therapy: results from a Phase I trial” (European Journal of Nuclear Medicine and Molecular Imaging, 2025)
# Where “and” joins values, the source holds several entries; their conditions need not be identical. Equal entries are not always repeated.
# Columns and labels:
# [1] = Tumour dosimetry by SPECT/CT, activity-based and anatomy-based tumour selection and delineation; assay type: in vivo, human; settings: for Tumour absorbed dose lower than Cycle 1 value, on average: anatomy-based
# Method: (§1) Multi-bed single-photon emission computed tomography (SPECT)/CT was conducted at 3-, 24-, 48- and 168-hours post-^177Lu-rhPSMA-10.1 administration in each treatment cycle for the estimation of organ and tumour absorbed doses in each patient. Prior to commencement of the study, each investigating site was required to complete a calibration of their dose calibrator and SPECT/CT system to ensure harmonised quantification of the imaging data. Quantitative reconstructions and all dosimetry analyses were carried out centrally by an independent dosimetry vendor (Radiopharmaceutical Imaging and Dosimetry LLC, Baltimore, MD).
# The specific absorbed doses (Gy/GBq) in normal organs and tumours were determined using the Medical Internal Radiation Dose (MIRD) Committee S-value methodology. Individual patient organ masses, determined via CT delineation, were scaled to reflect deviations from reference phantom geometry. Cumulative organ absorbed doses (Gy) were calculated across all treatment cycles. Further details on dosimetry methodology are provided in the supplemental materials and have been reported in accordance with EANM guidance.
# Approach one was an activity-based method equivalent to that used in most studies that have evaluated tumour dosimetry with ^177Lu-labelled PSMA RLT [28]. For this method, up to three tumours were selected according to their relative visual uptake on the 168-hour SPECT/CT. Lesion contouring for volume/mass was performed based on a 41% SUVmax threshold on the corresponding PSMA PET/CT. These contours were manually transferred onto the SPECT images, making minor adjustments where necessary to the contour margins accounting for any activity spill out on the SPECT. This is illustrated in Supplemental Figure S1. The second method was anatomy-based, with up to five tumours selected in a blinded fashion on CT according to RECIST v1.1 criteria. Lesion volume and mass were determined via manual contouring on the CT and then directly transferred to the SPECT images. Where a common lesion was selected across both methods, the difference in tumour volume resulting from the two contouring methods was calculated.
# For the Cycle 1 tumour dosimetry, 36 lesions (27 bone and 9 lymph nodes) were analysed using the activity-based method, while 51 lesions (39 bone and 12 lymph nodes) were evaluated using the anatomy-based method. […] For each method, the mean tumour dose was determined by averaging the maximum tumour dose across all patients.
# [2] = Venous whole-blood radioactivity measurement (gamma counter): blood clearance and red marrow absorbed dose; assay type: in vivo, human
# Method: To assess the biodistribution and kinetics of radioactivity in individual tissues, whole blood and imaging-based radiation dosimetry were performed. Venous blood samples for radioactivity measurement were collected within the 30 min prior to ^177Lu-rhPSMA-10.1 administration, and at approximately 30 min, 1.5-, 4-, 24- and 48-hours post-administration in all treatment cycles. Samples were collected from the contralateral arm to that of the ^177Lu-rhPSMA-10.1 injection. Whole-blood concentrations were measured using a calibrated gamma counter to estimate both red marrow absorbed doses and blood clearance over time. All measurements were decay-corrected to the time of sample collection.
# (§2) All continuous data are expressed as the mean (standard deviation [SD]) unless otherwise stated. All blood- and image-based pharmacokinetic analyses were conducted in Python and Excel. Effective half-lives for organs and tumours were calculated using a mono-exponential fit to the washout phase of the time–activity data.
# [3] = Image-based effective and biological half-lives (mono-exponential fit to washout phase); assay type: in vivo, human; settings: all cycles; for Biological Half-life, Tumours / Effective Half-life, Tumours: anatomy-based method
# Method: as §1, §2
# Based on exponential fits to image-derived time–activity washout data in individual tissues (Fig. 5), the biological and effective half-lives of ^177Lu-rhPSMA-10.1 in tumours and normal organs were estimated using the mean data from all patients across all cycles (Supplemental Table S3).
# ^aTumour half-life values were derived from the anatomy-based method and averaged across all tumours and cycles (n = 137).
# [4] = set-up: method as in PMID 37770108; settings: within the same patient; compassionate use program in Germany; cited from earlier work
smiles,measurement,setting,value
CC(C)(C)[Si](F)(c1ccc(C(=O)NC[C@@H](NC(=O)CN2CCN(CC(=O)[O-])CCN(CC(=O)[O-])CCN(CC(=O)[O-])CC2)C(=O)N[C@H](CCCCNC(=O)CCC(=O)NCCC[C@@H](NC(=O)CC[C@H](NC(=O)N[C@@H](CCC(=O)O)C(=O)O)C(=O)O)C(=O)O)C(=O)O)cc1)C(C)(C)C.[177Lu+3] [^177Lu-rhPSMA-10.1],"Tumour absorbed dose lower than Cycle 1 value, on average","[1]; Cycle 2, 11 patients with multiple cycles",~ 37% and 37%
same,"Tumour absorbed dose lower than Cycle 1 value, on average",[1]; Cycle 3,~ 56% and 56%
same,"Maximum tumour absorbed dose, range across patients","[1]; activity method, Cycle 1",2.00–25.7 Gy/GBq
same,Mean (SD) maximum tumour absorbed dose,"[1]; activity method, Cycle 1",8.87 Gy/GBq and 8.87 (6.71) Gy/GBq
same,"Mean therapeutic index, ratio of tumour-to-kidney absorbed doses","[1]; activity method, Cycle 1",32.1
same,Mean tumour-to-salivary gland absorbed dose ratio,"[1]; activity method, Cycle 1",73.2
same,"Maximum tumour absorbed dose, range across patients","[1]; anatomy method, Cycle 1",0.37–6.67 Gy/GBq
same,Mean (SD) maximum tumour absorbed dose,"[1]; anatomy method, Cycle 1",2.38 (1.78) Gy/GBq and 2.38 Gy/GBq
same,"Mean (SD) Absorbed Dose, bone marrow (blood-based)",[2]; All Cycles,0.032 Gy/GBq and 0.032 (0.010) Gy/GBq
same,"Mean (SD) Absorbed Dose, bone marrow (blood-based)","[2]; Cycle 1, 13 patients",0.031 (0.010) Gy/GBq
same,Effective half-life in blood,"[2]; venous whole blood, based on mean patient levels, mean (SD)",2.2 h
same,"Biological Half-life, Kidneys",[3]; Mean of 13 patients,44.9 hours
same,"Biological Half-life, Salivary Glands",[3]; Mean of 13 patients,64.6 hours
same,"Effective Half-life, Kidneys",[3]; Mean of 13 patients,33.7 h
same,"Effective Half-life, Salivary Glands",[3]; Mean of 13 patients,45.4 h
same,"Biological Half-life, Tumours",[3]; Mean of 13 patients,338 hours and 337.8 hours
same,"Effective Half-life, Tumours",[3]; Mean of 13 patients,91.4 h and 91 h
same,"Biological Half-life, Kidneys",[3]; Patient 1,123.6 hours
same,"Biological Half-life, Salivary Glands",[3]; Patient 1,120.2 hours
same,"Effective Half-life, Kidneys",[3]; Patient 1,69.6 h
same,"Effective Half-life, Salivary Glands",[3]; Patient 1,68.6 h
same,"Biological Half-life, Tumours",[3]; Patient 1,1692.5 hours
same,"Effective Half-life, Tumours",[3]; Patient 1,145.8 h
same,"Biological Half-life, Kidneys",[3]; Patient 2,52.3 hours
same,"Biological Half-life, Salivary Glands",[3]; Patient 2,54.2 hours
same,"Effective Half-life, Kidneys",[3]; Patient 2,39.4 h
same,"Effective Half-life, Salivary Glands",[3]; Patient 2,40.5 h
same,"Biological Half-life, Tumours",[3]; Patient 2,68.8 hours
same,"Effective Half-life, Tumours",[3]; Patient 2,48.1 h
same,"Biological Half-life, Kidneys",[3]; Patient 3,47.5 hours
same,"Biological Half-life, Salivary Glands",[3]; Patient 3,67.5 hours
same,"Effective Half-life, Kidneys",[3]; Patient 3,36.6 h
same,"Effective Half-life, Salivary Glands",[3]; Patient 3,47.4 h
same,"Biological Half-life, Tumours",[3]; Patient 3,305.1 hours
same,"Effective Half-life, Tumours",[3]; Patient 3,104.8 h
same,"Biological Half-life, Kidneys",[3]; Patient 4,35.9 hours
same,"Biological Half-life, Salivary Glands",[3]; Patient 4,84.7 hours
same,"Effective Half-life, Kidneys",[3]; Patient 4,29.3 h
same,"Effective Half-life, Salivary Glands",[3]; Patient 4,55.3 h
same,"Biological Half-life, Tumours",[3]; Patient 4,124.9 hours
same,"Effective Half-life, Tumours",[3]; Patient 4,70.1 h
same,"Biological Half-life, Kidneys",[3]; Patient 5,34.6 hours
same,"Biological Half-life, Salivary Glands",[3]; Patient 5,54.0 hours
same,"Effective Half-life, Kidneys",[3]; Patient 5,28.5 h
same,"Effective Half-life, Salivary Glands",[3]; Patient 5,40.3 h
same,"Biological Half-life, Tumours",[3]; Patient 5,168.9 hours
same,"Effective Half-life, Tumours",[3]; Patient 5,82.1 h
same,"Biological Half-life, Kidneys",[3]; Patient 6,38.7 hours
same,"Biological Half-life, Salivary Glands",[3]; Patient 6,61.3 hours
same,"Effective Half-life, Kidneys",[3]; Patient 6,31.2 h
same,"Effective Half-life, Salivary Glands",[3]; Patient 6,44.3 h
same,"Biological Half-life, Tumours",[3]; Patient 6,282.5 hours
same,"Effective Half-life, Tumours",[3]; Patient 6,102.0 h
same,"Biological Half-life, Kidneys",[3]; Patient 7,33.9 hours
same,"Biological Half-life, Salivary Glands",[3]; Patient 7,57.1 hours
same,"Effective Half-life, Kidneys",[3]; Patient 7,27.9 h
same,"Effective Half-life, Salivary Glands",[3]; Patient 7,42.1 h
same,"Biological Half-life, Tumours",[3]; Patient 7,316.6 hours
same,"Effective Half-life, Tumours",[3]; Patient 7,106.1 h
same,"Biological Half-life, Kidneys",[3]; Patient 8,34.9 hours
same,"Biological Half-life, Salivary Glands",[3]; Patient 8,61.5 hours
same,"Effective Half-life, Kidneys",[3]; Patient 8,28.6 h
same,"Effective Half-life, Salivary Glands",[3]; Patient 8,44.4 h
same,"Biological Half-life, Tumours",[3]; Patient 8,611.3 hours
same,"Effective Half-life, Tumours",[3]; Patient 8,126.6 h
same,"Biological Half-life, Kidneys",[3]; Patient 9,32.3 hours
same,"Biological Half-life, Salivary Glands",[3]; Patient 9,47.7 hours
same,"Effective Half-life, Kidneys",[3]; Patient 9,26.8 h
same,"Effective Half-life, Salivary Glands",[3]; Patient 9,36.7 h
same,"Biological Half-life, Tumours",[3]; Patient 9,204.8 hours
same,"Effective Half-life, Tumours",[3]; Patient 9,89.7 h
same,"Biological Half-life, Kidneys",[3]; Patient 10,28.7 hours
same,"Biological Half-life, Salivary Glands",[3]; Patient 10,59.0 hours
same,"Effective Half-life, Kidneys",[3]; Patient 10,24.3 h
same,"Effective Half-life, Salivary Glands",[3]; Patient 10,43.1 h
same,"Biological Half-life, Tumours",[3]; Patient 10,170.2 hours
same,"Effective Half-life, Tumours",[3]; Patient 10,82.4 h
same,"Biological Half-life, Kidneys",[3]; Patient 11,35.3 hours
same,"Biological Half-life, Salivary Glands",[3]; Patient 11,61.7 hours
same,"Effective Half-life, Kidneys",[3]; Patient 11,28.9 h
same,"Effective Half-life, Salivary Glands",[3]; Patient 11,44.5 h
same,"Biological Half-life, Tumours",[3]; Patient 11,148.2 hours
same,"Effective Half-life, Tumours",[3]; Patient 11,76.8 h
same,"Biological Half-life, Kidneys",[3]; Patient 12,54.5 hours
same,"Biological Half-life, Salivary Glands",[3]; Patient 12,53.6 hours
same,"Effective Half-life, Kidneys",[3]; Patient 12,40.6 h
same,"Effective Half-life, Salivary Glands",[3]; Patient 12,40.1 h
same,"Biological Half-life, Tumours",[3]; Patient 12,152.4 hours
same,"Effective Half-life, Tumours",[3]; Patient 12,78.0 h
same,"Biological Half-life, Kidneys",[3]; Patient 13,31.6 hours
same,"Biological Half-life, Salivary Glands",[3]; Patient 13,57.8 hours
same,"Effective Half-life, Kidneys",[3]; Patient 13,26.4 h
same,"Effective Half-life, Salivary Glands",[3]; Patient 13,42.4 h
same,"Biological Half-life, Tumours",[3]; Patient 13,145.7 hours
same,"Effective Half-life, Tumours",[3]; Patient 13,76.2 h
same,"Radiation dose to the tumour relative to ^177Lu-PSMA-I&T, fold greater",[4],up to 8 fold
